Measurements published in patent publication US9936701B2, “Herbicidal compounds” (Syngenta Participations AG, priority 2013, dated 2018).

Columns and labels:
[1] = system: a variety of test species; assay: Pre-emergence herbicidal activity (glasshouse, sprayed one day after sowing, evaluated after 13 days); format: in vivo; set-up: key: 5=total damage to plant; 0=no damage to plant; conditions: application pre-emergence, rate 1000 g/Ha, scale 0-5
Method in brief: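 Compounds are applied pre-emergence as an aqueous spray, formulated in 50:50 acetone/water containing 0.5% Tween 20, to pots sown one day earlier. Plants grow in a controlled glasshouse and are scored 13 days later for damage from 0 to 5.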

[2] = system: a variety of test species; assay: Post-emergence herbicidal activity (glasshouse, sprayed after 8 days cultivation, evaluated after 13 days); format: in vivo; set-up: key: 5=total damage to plant; 0=no damage to plant; conditions: rate 1000 g/Ha, scale 0-5
Method in brief: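 Visual herbicidal injury (0 = no damage, 5 = plant killed) recorded 13 days post-treatment. Treatment consisted of a single spray onto emerged seedlings at day 8; conditions before and after were 24/16 °C, 14 h light, 65% humidity.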

Structure (SMILES) | melting point | Pre-emergence herbicidal damage score, ABUTH [1] | Pre-emergence herbicidal damage score, ALOMY [1] | Pre-emergence herbicidal damage score, AMARE [1] | Pre-emergence herbicidal damage score, ECHCG [1] | Pre-emergence herbicidal damage score, SETFA [1] | Pre-emergence herbicidal damage score, ZEAMX [1] | ABUTH (Abutilon theophrasti) damage score, application post-emergence [2] | ALOMY (Alopecurus myosuroides) damage score, application post-emergence [2] | AMARE (Amaranthus retroflexus) damage score, application post-emergence [2] | ECHCG (Echinochloa crus-galli) damage score, application post-emergence [2] | SETFA (Setaria faberi) damage score, application post-emergence [2] | ZEAMX (Zea mays) damage score, application post-emergence [2]
CCC1=C(Br)C(=O)N(c2noc(C(C)(C)C)c2C#N)C1O (centres unmarked) [A55] | 138 to 140 °C | 5 | 4 | 5 | 5 | 5 | 3 | 5 | 5 | 5 | 5 | 5 | 4
CC1=C(Br)C(=O)N(c2noc(C(C)C)c2C#N)C1O (centres unmarked) [A61] | 127 to 129 °C | 5 | 4 | 5 | 5 | 5 | 3 | 5 | 5 | 5 | 5 | 5 | 3
CCC1=C(Br)C(=O)N(c2noc(C(C)C)c2C#N)C1O (centres unmarked) [A62] | 106 to 108 °C | 5 | 3 | 5 | 4 | 5 | 3 | 5 | 4 | 5 | 5 | 5 | 3
CCC1=C(Cl)C(=O)N(c2noc(C(C)C)c2C#N)C1O (centres unmarked) [A63] | 93 to 95 °C | 5 | 3 | 5 | 5 | 5 | 3 | 5 | 4 | 5 | 5 | 5 | 3
C=CC(C)(C)c1onc(N2C(=O)C(Cl)=C(C)C2O)c1C#N (centres unmarked) [A66] | 150 to 152 °C | 5 | 3 | 5 | 5 | 4 | 1 | 5 | 5 | 5 | 5 | 5 | 3

Now from value to compound, other results behind:

melting point | Structure (SMILES) | Pre-emergence herbicidal damage score, ABUTH [1] | Pre-emergence herbicidal damage score, ALOMY [1] | Pre-emergence herbicidal damage score, AMARE [1] | Pre-emergence herbicidal damage score, ECHCG [1] | Pre-emergence herbicidal damage score, SETFA [1] | Pre-emergence herbicidal damage score, ZEAMX [1] | ABUTH (Abutilon theophrasti) damage score, application post-emergence [2] | ALOMY (Alopecurus myosuroides) damage score, application post-emergence [2] | AMARE (Amaranthus retroflexus) damage score, application post-emergence [2] | ECHCG (Echinochloa crus-galli) damage score, application post-emergence [2] | SETFA (Setaria faberi) damage score, application post-emergence [2] | ZEAMX (Zea mays) damage score, application post-emergence [2]
138 to 140 °C | CC1=C(Br)C(=O)N(c2cc(C(C)(C)C#N)on2)C1O (centres unmarked) [A53] | 5 | 4 | 5 | 5 | 5 | 4 | 5 | 5 | 5 | 5 | 5 | 5
133 to 135 °C | CCCC1=C(Cl)C(=O)N(c2noc(C(C)(C)C)c2C#N)C1O (centres unmarked) [A54] | 5 | 4 | 5 | 5 | 5 | 4 | 5 | 5 | 5 | 5 | 5 | 5
134 to 136 °C | CCC1=C(Cl)C(=O)N(c2noc(C(C)(C)C)c2C#N)C1O (centres unmarked) [A58] | 5 | 4 | 5 | 5 | 5 | 4 | 5 | 5 | 5 | 5 | 5 | 5
110 to 112 °C | CCC1=C(Cl)C(=O)N(c2noc(C(C)(C)CC)c2C#N)C1O (centres unmarked) [A60] | 5 | 3 | 5 | 4 | 5 | 3 | 5 | 4 | 5 | 5 | 5 | 2
101 to 102 °C | CCC1=C(Cl)C(=O)N(c2cc(C(C)(C)C#N)on2)C1O (centres unmarked) [A64] | 4 | 3 | 5 | 5 | 5 | 1 | 5 | 5 | 5 | 5 | 5 | 4
99 to 100 °C | CCCC1=C(Cl)C(=O)N(c2cc(C(C)(C)C#N)on2)C1O (centres unmarked) [A65] | 5 | 3 | 5 | 5 | 5 | 2 | 5 | 5 | 5 | 5 | 5 | 4
